In brackets after ≈: the same amount, converted by molar mass.
The compounds below were run against S. aureus GyrB ATPase (Staphylococcus aureus, UniProt P0A0K8) (assay: biochemical). Conditions: compound at 1 μM; one value per test if tested more than once; read-out: % Inhibition of S. aureus GyrB ATPase.
In short: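 IC50 values derive from 10-point titrations of compound (in DMSO). Phosphate formed from 250 μM ATP was quantified by acidic molybdate/malachite green after quenching.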

Chain of S. aureus GyrB ATPase (P0A0K8 whole entry): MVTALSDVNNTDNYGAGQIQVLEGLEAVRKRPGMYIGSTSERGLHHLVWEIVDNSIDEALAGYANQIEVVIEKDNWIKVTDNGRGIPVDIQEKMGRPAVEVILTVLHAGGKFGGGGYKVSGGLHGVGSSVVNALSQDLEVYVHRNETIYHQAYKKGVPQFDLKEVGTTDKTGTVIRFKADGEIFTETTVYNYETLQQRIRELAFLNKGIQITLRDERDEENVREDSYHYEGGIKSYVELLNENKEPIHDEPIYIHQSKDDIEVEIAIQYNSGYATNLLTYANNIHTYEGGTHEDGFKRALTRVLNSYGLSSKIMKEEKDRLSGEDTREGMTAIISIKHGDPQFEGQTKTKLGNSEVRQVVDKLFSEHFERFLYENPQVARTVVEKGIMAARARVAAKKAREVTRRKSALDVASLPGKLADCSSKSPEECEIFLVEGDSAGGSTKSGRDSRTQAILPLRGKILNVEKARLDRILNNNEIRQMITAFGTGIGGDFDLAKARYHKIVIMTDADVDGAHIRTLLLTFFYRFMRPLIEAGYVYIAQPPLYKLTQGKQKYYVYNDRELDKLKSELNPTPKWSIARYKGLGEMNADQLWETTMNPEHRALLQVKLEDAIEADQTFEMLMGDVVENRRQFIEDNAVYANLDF
Chain of S. aureus GyrB ATPase (P0AES4 whole entry, further chain): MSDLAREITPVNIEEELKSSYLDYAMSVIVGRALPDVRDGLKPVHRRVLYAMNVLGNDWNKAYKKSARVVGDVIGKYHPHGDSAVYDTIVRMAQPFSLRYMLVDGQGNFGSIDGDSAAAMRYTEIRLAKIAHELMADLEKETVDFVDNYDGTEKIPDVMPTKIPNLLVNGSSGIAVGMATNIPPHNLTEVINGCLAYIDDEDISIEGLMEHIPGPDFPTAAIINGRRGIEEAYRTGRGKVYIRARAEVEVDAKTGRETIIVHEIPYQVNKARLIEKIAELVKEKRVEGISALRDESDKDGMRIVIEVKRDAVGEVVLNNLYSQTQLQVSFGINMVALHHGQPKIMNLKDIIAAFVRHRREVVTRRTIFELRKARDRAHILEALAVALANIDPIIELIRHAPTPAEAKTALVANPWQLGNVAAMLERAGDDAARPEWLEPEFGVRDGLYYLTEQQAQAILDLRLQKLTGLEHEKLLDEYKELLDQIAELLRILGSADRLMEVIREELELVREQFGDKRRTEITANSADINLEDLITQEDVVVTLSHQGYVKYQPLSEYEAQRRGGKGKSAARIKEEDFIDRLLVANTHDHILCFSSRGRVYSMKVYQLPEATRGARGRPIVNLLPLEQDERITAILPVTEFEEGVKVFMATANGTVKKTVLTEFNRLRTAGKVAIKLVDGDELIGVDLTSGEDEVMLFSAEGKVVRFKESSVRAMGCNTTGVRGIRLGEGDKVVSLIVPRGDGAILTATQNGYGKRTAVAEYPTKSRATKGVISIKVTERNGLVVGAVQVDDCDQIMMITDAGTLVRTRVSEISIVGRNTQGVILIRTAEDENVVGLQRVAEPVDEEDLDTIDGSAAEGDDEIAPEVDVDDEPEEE

SMILES	inhibition at 1 µM [%]
CCNC(=O)Nc1cc(-c2nc(C(F)(F)F)cs2)c(-c2ccc3c(=O)c(C(=O)O)cn(CC)c3c2)cn1 [Example 9, 1-ethyl-7-(6-(3-ethylureido)-4-(4-trifluoromethylthiazol-2-yl)pyridin-3-yl)-4-oxo-1,4-dihydroquinoline-3-carboxylic acid]	106
CCNC(=O)Nc1cc(-c2nc(C(F)(F)F)cs2)c(-c2ccc3c(=O)c(C(=O)NCCN4CCN(C)CC4)cn(Cc4cccnc4)c3c2)cn1 [Example 362, 7-{6-[(ethylcarbamoyl)amino]-4-[4-(trifluoromethyl)-1,3-thiazol-2-yl]pyridin-3-yl}-N-[2-(4-methylpiperazin-1-yl)ethyl]-4-oxo-1-(pyridin-3-ylmethyl)-1,4-dihydroquinoline-3-carboxamide]	94
CCNC(=O)Nc1cc(-c2nc(C(F)(F)F)cs2)c(-c2ccc3c(=O)c(C(=O)NC)cn(CCO)c3c2)cn1 [Example 363, 7-{6-[(Ethylcarbamoyl)amino]-4-[4-(trifluoromethyl)-1,3-thiazol-2-yl]pyridin-3-yl}-1-(2-hydroxyethyl)-N-methyl-4-oxo-1,4-dihydroquinoline-3-carboxamide]	95
CCNC(=O)Nc1cc(-c2nc(C(F)(F)F)cs2)c(-c2ccc3c(=O)c(C(=O)NCCO)cn(CCO)c3c2)cn1 [Example 364, 7-{6-[(Ethylcarbamoyl)amino]-4-[4-(trifluoromethyl)-1,3-thiazol-2-yl]pyridin-3-yl}-N,1-bis(2-hydroxyethyl)-4-oxo-1,4-dihydroquinoline-3-carboxamide]	97
CCNC(=O)Nc1cc(-c2nc(C(F)(F)F)cs2)c(-c2ccc3c(=O)c(C(=O)NCCCO)cn(CCO)c3c2)cn1 [Example 365, 7-{6-[(ethylcarbamoyl)amino]-4-[4-(trifluoromethyl)-1,3-thiazol-2-yl]pyridin-3-yl}-1-(2-hydroxyethyl)-N-(3-hydroxypropyl)-4-oxo-1,4-dihydroquinoline-3-carboxamide]	99
CCNC(=O)Nc1cc(-c2nc(C(F)(F)F)cs2)c(-c2ccc3c(=O)c(C(=O)NCCN(C)C)cn(CCO)c3c2)cn1 [Example 366, N-[2-(dimethylamino)ethyl]-7-{6-[(ethylcarbamoyl)amino]-4-[4-(trifluoromethyl)-1,3-thiazol-2-yl]pyridin-3-yl}-1-(2-hydroxyethyl)-4-oxo-1,4-dihydroquinoline-3-carboxamide]	99
CCNC(=O)Nc1cc(-c2nc(C(F)(F)F)cs2)c(-c2ccc3c(=O)c(C(=O)NCCN4CCOCC4)cn(CCO)c3c2)cn1 [Example 367, 7-{6-[(ethylcarbamoyl)amino]-4-[4-(trifluoromethyl)-1,3-thiazol-2-yl]pyridin-3-yl}-1-(2-hydroxyethyl)-N-[2-(morpholin-4-yl)ethyl]-4-oxo-1,4-dihydroquinoline-3-carboxamide]	100
CCNC(=O)Nc1cc(-c2nc(C(F)(F)F)cs2)c(-c2ccc3c(=O)c(C(=O)NCCN4CCN(C)CC4)cn(CCO)c3c2)cn1 [Example 368, 7-{6-[(Ethylcarbamoyl)amino]-4-[4-(trifluoromethyl)-1,3-thiazol-2-yl]pyridin-3-yl}-1-(2-hydroxyethyl)-N-[2-(4-methylpiperazin-1-yl)ethyl]-4-oxo-1,4-dihydroquinoline-3-carboxamide]	87
CCNC(=O)Nc1cc(-c2nc(C(F)(F)F)cs2)c(-c2ccc3c(=O)c(C(=O)NC)cn(CCOC)c3c2)cn1 [Example 369, 7-{6-[(Ethylcarbamoyl)amino]-4-[4-(trifluoromethyl)-1,3-thiazol-2-yl]pyridin-3-yl}-1-(2-methoxyethyl)-N-methyl-4-oxo-1,4-dihydroquinoline-3-carboxamide]	97
CCNC(=O)Nc1cc(-c2nc(C(F)(F)F)cs2)c(-c2ccc3c(=O)c(C(=O)NCCO)cn(CCOC)c3c2)cn1 [Example 370, 7-{6-[(Ethylcarbamoyl)amino]-4-[4-(trifluoromethyl)-1,3-thiazol-2-yl]pyridin-3-yl}-N-(2-hydroxyethyl)-1-(2-methoxyethyl)-4-oxo-1,4-dihydroquinoline-3-carboxamide]	98
CCNC(=O)Nc1cc(-c2nc(C(F)(F)F)cs2)c(-c2ccc3c(=O)c(C(=O)NCCCO)cn(CCOC)c3c2)cn1 [Example 371, 7-{6-[(Ethylcarbamoyl)amino]-4-[4-(trifluoromethyl)-1,3-thiazol-2-yl]pyridin-3-yl}-N-(3-hydroxypropyl)-1-(2-methoxyethyl)-4-oxo-1,4-dihydroquinoline-3-carboxamide]	98
CCNC(=O)Nc1cc(-c2nc(C(F)(F)F)cs2)c(-c2ccc3c(=O)c(C(=O)NCCN(C)C)cn(CCOC)c3c2)cn1 [Example 372, N-[2-(dimethylamino)ethyl]-7-{6-[(ethylcarbamoyl)amino]-4-[4-(trifluoromethyl)-1,3-thiazol-2-yl]pyridin-3-yl}-1-(2-methoxyethyl)-4-oxo-1,4-dihydroquinoline-3-carboxamide]	98
CCNC(=O)Nc1cc(-c2nc(C(F)(F)F)cs2)c(-c2ccc3c(=O)c(C(=O)NCCN4CCN(C)CC4)cn(CCOC)c3c2)cn1 [Example 373, 7-{6-[(Ethylcarbamoyl)amino]-4-[4-(trifluoromethyl)-1,3-thiazol-2-yl]pyridin-3-yl}-1-(2-methoxyethyl)-N-[2-(4-methylpiperazin-1-yl)ethyl]-4-oxo-1,4-dihydroquinoline-3-carboxamide]	94
CCNC(=O)Nc1cc(-c2nc(C(F)(F)F)cs2)c(-c2ccc3c(=O)c(C(=O)NC)cn(CC4CC4)c3c2)cn1 [Example 374, 1-(Cyclopropylmethyl)-7-{6-[(ethylcarbamoyl)amino]-4-[4-(trifluoromethyl)-1,3-thiazol-2-yl]pyridin-3-yl}-N-methyl-4-oxo-1,4-dihydroquinoline-3-carboxamide]	86
CCNC(=O)Nc1cc(-c2nc(C(F)(F)F)cs2)c(-c2ccc3c(=O)c(C(=O)NCCO)cn(CC4CC4)c3c2)cn1 [Example 375, 1-(Cyclopropylmethyl)-7-{6-[(ethylcarbamoyl)amino]-4-[4-(trifluoromethyl)-1,3-thiazol-2-yl]pyridin-3-yl}-N-(2-hydroxyethyl)-4-oxo-1,4-dihydroquinoline-3-carboxamide]	99
CCNC(=O)Nc1cc(-c2nc(C(F)(F)F)cs2)c(-c2ccc3c(=O)c(C(=O)NCCCO)cn(CC4CC4)c3c2)cn1 [Example 376, 1-(Cyclopropylmethyl)-7-{6-[(ethylcarbamoyl)amino]-4-[4-(trifluoromethyl)-1,3-thiazol-2-yl]pyridin-3-yl}-N-(3-hydroxypropyl)-4-oxo-1,4-dihydroquinoline-3-carboxamide]	108
CCNC(=O)Nc1cc(-c2nc(C(F)(F)F)cs2)c(-c2ccc3c(=O)c(C(=O)NCCN(C)C)cn(CC4CC4)c3c2)cn1 [Example 377, 1-(Cyclopropylmethyl)-N-[2-(dimethylamino)ethyl]-7-{6-[(ethylcarbamoyl)amino]-4-[4-(trifluoromethyl)-1,3-thiazol-2-yl]pyridin-3-yl}-4-oxo-1,4-dihydroquinoline-3-carboxamide]	106
CCNC(=O)Nc1cc(-c2nc(C(F)(F)F)cs2)c(-c2ccc3c(=O)c(C(=O)NCCN4CCOCC4)cn(CC4CC4)c3c2)cn1 [Example 378, 1-(Cyclopropylmethyl)-7-{6-[(ethylcarbamoyl)amino]-4-[4-(trifluoromethyl)-1,3-thiazol-2-yl]pyridin-3-yl}-N-[2-(morpholin-4-yl)ethyl]-4-oxo-1,4-dihydroquinoline-3-carboxamide]	107
CCNC(=O)Nc1cc(-c2nc(C(F)(F)F)cs2)c(-c2ccc3c(=O)c(C(=O)NCCN4CCN(C)CC4)cn(CC4CC4)c3c2)cn1 [Example 379, 1-(Cyclopropylmethyl)-7-{6-[(ethylcarbamoyl)amino]-4-[4-(trifluoromethyl)-1,3-thiazol-2-yl]pyridin-3-yl}-N-[2-(4-methylpiperazin-1-yl)ethyl]-4-oxo-1,4-dihydroquinoline-3-carboxamide]	97

What follows are compounds tested on Streptococcus pneumoniae (assay: Bacterial susceptibility testing in liquid media (MIC)). Conditions: against Streptococcus pneumoniae; lowest concentration reducing growth by 80% or more.
Format: cell-based
From the text: Compounds may be tested for antimicrobial activity by susceptibility testing in liquid media. Compounds may be dissolved in dimethylsulfoxide and tested in 10 doubling dilutions in the susceptibility assays. The organisms used in the assay may be grown overnight on suitable agar media and then suspended in a liquid medium appropriate for the growth of the organism. The suspension can be a 0.5 McFarland and a further 1 in 10 dilution can be made into the same liquid medium to prepare the final organism suspension in 100 μL. Plates can be incubated under appropriate conditions at 37° C. for 24 hrs prior to reading. The Minimum Inhibitory Concentration (MIC) may be determined as the lowest drug concentration able to reduce growth by 80% or more.

SMILES	MIC [µM]
CCNC(=O)Nc1cc(-c2nc(C(F)(F)F)cs2)c(-c2ccc3c(=O)c(C(=O)O)cn(CC)c3c2)cn1 [Example 9, 1-ethyl-7-(6-(3-ethylureido)-4-(4-trifluoromethylthiazol-2-yl)pyridin-3-yl)-4-oxo-1,4-dihydroquinoline-3-carboxylic acid]	0.02 (≈ 0.0106 µg/mL)

Source: patent US8283361B2 (AstraZeneca AB, priority 2008, dated 2012)
